Measured values from patent USRE46511E1, “Fused pyrimidine derivatives for inhibition of tyrosine kinase activity” (HANMI SCIENCE CO., LTD., priority 2010, dated 2017).

How the values were obtained:
A431 (EGFR WT) = assay: Inhibition test for growth of cancer cell expressing EGFR (SRB), A431; assay type: cell-based; settings: Homo sapiens, A-431; A431 cells, 72 hours, SRB; read-out: GI50 A431 EGFR WT;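 further: cells in 96-well plates exposed to tenfold serial dilutions from 100 µM down to 10^−6 µM, DMSO under 1%, SRB staining read as absorbance at 540 nm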
Procedure: A431 cell line was incubated in a high-glucose DMEM (Dulbecco's Modified Eagle's Medium) supplemented with 10% fetal bovine serum (FBS) and 1% penicillin/streptomycin (Gibco BRL), and HCC827 and NCI-H1975 cell lines were incubated in an RPMI medium supplemented with 10% FBS, 1% penicillin/streptomycin and 1% sodium pyruvate.
The cancer cell lines stored in a liquid nitrogen tank were each quickly thawed at 37° C., and centrifuged to remove the medium. The resulting cell pellet was mixed with a culture medium, incubated in a culture flask at 37° C. under 5% CO2 for 2 to 3 days, and the medium was removed. The remaining cells were washed with DPBS (Dulbecco's Phosphate Buffered Saline) and separated from the flask by using Tripsin-EDTA. […] 100 μl of the diluted cell solution was added to each well of a 96-well plate, and incubated at 37° C. under 5% CO2 for 1 day.
In case that the test compound was not soluble in DMSO, 1% HCl was added thereto and treated in a 40° C. water bath for 30 mins until a complete dissolution was attained. The DMSO solution containing test compound was diluted with a culture medium to a final concentration of 100 μM, and then diluted 10 times serially to 10^−6 μM (a final concentration of DMSO was less than 1%).
The medium was removed from each well of the 96-well plate. And then, 100 μl of a test compound solution was added to each well holding the cultured cells, and the plate was incubated at 37° C. under 5% CO2 for 72 hours (except that NCI-H1975 cells were incubated for 48 hours). After removing the medium from the plate, 50 μA of 10% trichloroacetic acid was added to each well, and the plate was kept at 4° C. for 1 hour to fix the cells to the bottom of the plate. The added 10% trichloroacetic acid solution was removed from each well, the plate was dried, 100 μA of an SRB (Sulforhodamine-B) dye solution at a concentration of 0.4% dissolved in 1% acetic acid was added thereto, and the resulting mixture was reacted for 10 mins at room temperature. After removing the dye solution, the plate was washed with water, and well dried. When the dye solution was not effectively removed by water, 1% acetic acid was used. 150 μA of 10 mM trisma base was added to each well, and the absorbance at 540 nm wavelength was determined with a microplate reader.

EGFR WT = biological target: T1, EGFR WT (Homo sapiens, UniProt P00533); assay: z-lyte kinase assay, EGFR WT; assay type: biochemical
T1 construct: purchased Invitrogen
T1 sequence (P00533 25-1210): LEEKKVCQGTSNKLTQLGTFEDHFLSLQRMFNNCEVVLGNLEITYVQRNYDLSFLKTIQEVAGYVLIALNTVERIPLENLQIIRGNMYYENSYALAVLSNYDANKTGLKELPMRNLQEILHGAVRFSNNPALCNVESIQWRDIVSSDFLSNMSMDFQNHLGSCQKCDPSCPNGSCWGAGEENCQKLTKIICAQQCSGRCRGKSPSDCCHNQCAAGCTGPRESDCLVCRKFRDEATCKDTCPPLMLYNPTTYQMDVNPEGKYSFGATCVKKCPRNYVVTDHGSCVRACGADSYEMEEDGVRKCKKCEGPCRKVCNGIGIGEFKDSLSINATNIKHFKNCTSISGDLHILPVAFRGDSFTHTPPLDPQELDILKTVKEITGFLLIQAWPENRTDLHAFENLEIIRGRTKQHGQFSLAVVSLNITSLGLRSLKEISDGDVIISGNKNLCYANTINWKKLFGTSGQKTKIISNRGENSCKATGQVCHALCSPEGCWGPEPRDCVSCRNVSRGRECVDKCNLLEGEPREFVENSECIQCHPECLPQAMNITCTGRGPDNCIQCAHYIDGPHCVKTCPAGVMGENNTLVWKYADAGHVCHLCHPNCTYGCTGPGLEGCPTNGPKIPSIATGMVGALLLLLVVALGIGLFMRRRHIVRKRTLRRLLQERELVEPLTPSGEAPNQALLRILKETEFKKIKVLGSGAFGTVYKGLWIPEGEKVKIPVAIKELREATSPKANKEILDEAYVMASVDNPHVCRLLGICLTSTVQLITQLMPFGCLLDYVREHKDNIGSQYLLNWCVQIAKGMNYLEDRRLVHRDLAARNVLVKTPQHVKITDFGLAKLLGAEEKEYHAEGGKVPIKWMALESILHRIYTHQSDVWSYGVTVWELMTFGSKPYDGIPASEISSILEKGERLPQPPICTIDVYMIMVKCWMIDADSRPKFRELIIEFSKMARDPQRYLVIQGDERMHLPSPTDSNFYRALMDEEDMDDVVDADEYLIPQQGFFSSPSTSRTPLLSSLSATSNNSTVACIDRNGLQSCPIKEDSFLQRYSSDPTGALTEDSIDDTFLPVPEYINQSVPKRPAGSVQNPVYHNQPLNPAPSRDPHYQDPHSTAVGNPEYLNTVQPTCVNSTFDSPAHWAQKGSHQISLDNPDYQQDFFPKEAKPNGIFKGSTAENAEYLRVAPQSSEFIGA

BTK = biological target: T2, BTK (Homo sapiens, UniProt Q06187); assay: z-lyte kinase assay, BTK; assay type: biochemical
T2 construct: purchased Invitrogen
T2 sequence (Q06187 whole entry): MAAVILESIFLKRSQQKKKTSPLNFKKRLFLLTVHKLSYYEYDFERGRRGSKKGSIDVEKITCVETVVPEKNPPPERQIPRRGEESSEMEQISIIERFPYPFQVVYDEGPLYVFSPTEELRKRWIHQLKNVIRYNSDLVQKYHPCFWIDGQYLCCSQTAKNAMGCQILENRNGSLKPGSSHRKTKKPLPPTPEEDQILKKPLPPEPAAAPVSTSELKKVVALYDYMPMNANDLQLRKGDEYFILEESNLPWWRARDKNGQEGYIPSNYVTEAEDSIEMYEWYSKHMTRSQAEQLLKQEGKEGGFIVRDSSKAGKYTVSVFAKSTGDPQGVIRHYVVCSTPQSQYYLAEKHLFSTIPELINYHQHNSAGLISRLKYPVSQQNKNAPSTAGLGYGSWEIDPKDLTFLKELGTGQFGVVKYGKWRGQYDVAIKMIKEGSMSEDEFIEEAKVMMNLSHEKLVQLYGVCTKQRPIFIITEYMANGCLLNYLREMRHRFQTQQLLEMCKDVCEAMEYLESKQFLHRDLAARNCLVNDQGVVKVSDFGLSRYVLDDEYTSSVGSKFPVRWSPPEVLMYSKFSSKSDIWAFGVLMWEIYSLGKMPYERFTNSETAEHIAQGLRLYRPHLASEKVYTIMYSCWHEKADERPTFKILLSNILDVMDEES
Procedure: (§1) The inhibiting activities of the inventive compounds obtained in Examples 1 to 237 against EGFR WT and EGFR L858R/T790M kinase were determined using z-lyte kinase assay kit (Invitrogen, PV3191). The kinases used in the test were purchased from Invitrogen.
(§2) The compounds obtained in Examples 1 to 237 were each prepared to 10 mM DMSO solution, and a solution containing 4% DMSO were prepared therefrom and diluted to a concentration of 1 μM to 0.0001 μM. […] The test was conducted in a 384 well polystyrene flat-bottomed plates. 5 μl of the diluted solution of each compound was added to each well, and 10 μl of a mixture of peptide substrate and kinase in a suitable concentration and 5 μl of 5˜300 μM ATP solution were successively added thereto and the plate was incubated in a stirrer at room temperature for 60 minutes. After 60 mins, 10 μl of coloring reagent was added to the resulting mixture to initiate a fluorescence reaction of peptide substrate and a terminating solution was added thereto for terminating the reaction. A fluorescence value of each well was determined with a fluorescence meter (Molecular Device) at 400 nm (excitation filter) and 520 nm (emission filter). […] The calculation of IC50 and the result analysis were carried out by using Microsoft Excel.
(§3) The inhibiting activities of the inventive compounds obtained in Examples 1 to 237 against BTK and JAK3 kinases were determined, respectively. The procedure of Test Example 2 was repeated except that BTK and JAK3 kinases (Invitrogen) were employed instead of using the EGFR kinase.

[1] = system: NCI-H1975 (EGFR L858R/T790M); assay: Inhibition test for growth of cancer cell expressing EGFR (MTS), NCI-H1975; assay type: cell-based; settings: Homo sapiens; NCI-H1975 cells, 48 hours, MTS; read-out: GI50 NCI-H1975 EGFR L858R/T790M
JAK3 = biological target: T3, JAK3 (Homo sapiens, UniProt P52333); assay: z-lyte kinase assay, JAK3; assay type: biochemical
T3 construct: purchased Invitrogen
T3 sequence (P52333 1-1124): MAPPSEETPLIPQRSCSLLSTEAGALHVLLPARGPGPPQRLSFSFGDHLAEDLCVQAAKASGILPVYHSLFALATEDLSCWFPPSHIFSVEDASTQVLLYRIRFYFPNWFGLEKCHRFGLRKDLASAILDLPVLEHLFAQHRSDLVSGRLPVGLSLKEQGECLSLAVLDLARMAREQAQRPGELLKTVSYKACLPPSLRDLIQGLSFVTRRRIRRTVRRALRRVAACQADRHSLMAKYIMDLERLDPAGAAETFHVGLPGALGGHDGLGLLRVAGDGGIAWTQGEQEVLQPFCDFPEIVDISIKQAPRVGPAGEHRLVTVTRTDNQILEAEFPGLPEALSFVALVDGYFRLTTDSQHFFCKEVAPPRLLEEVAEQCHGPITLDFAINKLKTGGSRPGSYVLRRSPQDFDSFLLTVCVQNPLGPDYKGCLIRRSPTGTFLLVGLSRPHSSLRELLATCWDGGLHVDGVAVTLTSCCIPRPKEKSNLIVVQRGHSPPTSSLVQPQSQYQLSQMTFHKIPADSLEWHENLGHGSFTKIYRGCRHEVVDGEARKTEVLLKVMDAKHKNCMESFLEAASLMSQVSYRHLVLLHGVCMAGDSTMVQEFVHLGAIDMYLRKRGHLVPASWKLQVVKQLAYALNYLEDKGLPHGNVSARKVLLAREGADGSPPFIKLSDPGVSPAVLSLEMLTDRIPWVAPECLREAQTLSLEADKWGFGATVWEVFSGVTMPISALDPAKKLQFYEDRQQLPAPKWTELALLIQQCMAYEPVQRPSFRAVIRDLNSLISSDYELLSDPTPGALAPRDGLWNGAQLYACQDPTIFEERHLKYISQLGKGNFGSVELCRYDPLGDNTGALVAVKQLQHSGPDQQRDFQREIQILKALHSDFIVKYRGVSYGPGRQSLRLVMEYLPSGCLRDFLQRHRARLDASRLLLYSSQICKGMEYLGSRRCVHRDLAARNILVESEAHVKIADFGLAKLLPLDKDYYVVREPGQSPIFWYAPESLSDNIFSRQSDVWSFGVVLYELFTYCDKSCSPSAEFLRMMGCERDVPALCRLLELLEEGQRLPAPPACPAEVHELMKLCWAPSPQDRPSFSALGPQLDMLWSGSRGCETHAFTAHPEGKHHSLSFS
Procedure: as §1, §2, §3

[2] = system: HCC827 (EGFR DelE746_A750); assay: Inhibition test for growth of cancer cell expressing EGFR (SRB), HCC827; assay type: cell-based; settings: Homo sapiens, HCC827, 72 h, HCC827 cells, 72 hours, SRB; read-out: GI50 HCC827 EGFR DelE746_A750;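 further: cells in 96-well plates exposed to tenfold serial dilutions from 100 µM, fixed with trichloroacetic acid, SRB-stained, absorbance read at 540 nm, DMSO under 1%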
EGFR L858R/T790M = biological target: T4, EGFR L858R/T790M (Homo sapiens, UniProt P00533, L858R/T790M); assay: z-lyte kinase assay, EGFR L858R/T790M; assay type: biochemical
T4 construct: purchased Invitrogen
T4 sequence (P00533 25-1210 T790M/L858R): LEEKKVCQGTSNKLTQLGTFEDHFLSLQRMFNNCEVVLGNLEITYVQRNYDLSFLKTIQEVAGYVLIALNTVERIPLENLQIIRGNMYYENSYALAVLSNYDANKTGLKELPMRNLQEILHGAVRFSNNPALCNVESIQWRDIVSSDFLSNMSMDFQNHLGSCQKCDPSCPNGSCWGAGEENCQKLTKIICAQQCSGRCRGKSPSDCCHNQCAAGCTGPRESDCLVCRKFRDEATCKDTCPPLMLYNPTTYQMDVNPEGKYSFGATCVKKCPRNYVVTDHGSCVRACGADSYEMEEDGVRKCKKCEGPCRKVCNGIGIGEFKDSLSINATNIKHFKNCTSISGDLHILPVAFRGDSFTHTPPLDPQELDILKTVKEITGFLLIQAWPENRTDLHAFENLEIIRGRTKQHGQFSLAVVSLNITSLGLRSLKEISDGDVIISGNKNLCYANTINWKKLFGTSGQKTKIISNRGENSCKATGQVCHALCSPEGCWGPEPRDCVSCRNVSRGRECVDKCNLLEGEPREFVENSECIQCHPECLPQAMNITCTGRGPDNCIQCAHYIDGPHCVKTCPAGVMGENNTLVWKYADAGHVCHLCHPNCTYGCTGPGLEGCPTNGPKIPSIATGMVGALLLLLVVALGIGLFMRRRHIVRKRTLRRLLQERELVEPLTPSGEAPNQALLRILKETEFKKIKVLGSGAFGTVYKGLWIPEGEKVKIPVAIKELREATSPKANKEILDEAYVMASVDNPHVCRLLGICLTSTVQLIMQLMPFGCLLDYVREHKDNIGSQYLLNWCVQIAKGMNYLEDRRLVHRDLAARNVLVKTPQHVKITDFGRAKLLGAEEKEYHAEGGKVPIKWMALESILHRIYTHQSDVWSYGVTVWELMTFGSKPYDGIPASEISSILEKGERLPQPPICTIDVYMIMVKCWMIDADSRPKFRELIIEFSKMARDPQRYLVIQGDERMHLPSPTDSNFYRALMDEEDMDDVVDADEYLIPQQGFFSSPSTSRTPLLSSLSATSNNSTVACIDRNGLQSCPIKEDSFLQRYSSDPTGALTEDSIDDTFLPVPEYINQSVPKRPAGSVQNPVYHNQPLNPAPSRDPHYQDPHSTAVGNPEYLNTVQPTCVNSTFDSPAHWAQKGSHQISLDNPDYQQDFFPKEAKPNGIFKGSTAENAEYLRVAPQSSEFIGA

[3] = Body weight change in nude mice xenografted with NCI-H1975 cancer cells; assay type: in vivo; settings: for mBWL (maximum body weight loss): oral, one time a day for 10 days, measured on 10th day after administration
Procedure: (§4) . In the test, a tumor in the sixth generation isolated from an individual was cut into a size of 30 mg, and transplanted subcutaneously into right flanks of mice using a 12-gauge trocar. The volume of tumor (V) is calculated from following equation 1 after measuring a long diameter (L) and a short diameter (S) using a vernier caliper twice a week for 18 days of test. All test materials were orally administered one time a day for total 10 days, and the tumor growth inhibition rate (IR: tumor growth inhibition rate (%) calculated based on a vehicle-treated control) and the maximum body weight loss (mBWL: maximum body weight loss calculated based on the body weight just before administration) were calculated using following equations 2 and 3. V=L×S^2/2 <Equation 1>
wherein, RTG is a relative tumor growth, which is the mean tumor volume on a particular day based on […] mean tumor volume. mBWL(%)=(1−(mean body weight on day x/mean body weight just before administration))×100 <Equation 3>
wherein, day x is a day on which the body weight loss is largest during the test.

NCI-H1975 cancer cells = assay: Anticancer efficacy test in nude mice xenografted with NCI-H1975 cancer cells; assay type: in vivo; settings: oral, one time a day for 10 days, measured on 16th day after administration
Procedure: NCI-H1975 cell (lung cancer cell) was purchased from American Type Culture Collection (ATCC). After formation of tumor by subcutaneous injection with 1×10^8 cells/0.3 mL of tumor cell suspension on the back of mice, passages were carried out and tumor in at least third generation was used in the test.
as §4, with “In” for “. In”
wherein, L is a long diameter and S is a short diameter. IR(%)=(1−(RTG of the treatment group of test material)/(RTG of the control group))×100 <Equation 2>

Row | GI50 (A431 (EGFR WT)) | IC50 (EGFR WT) | IC50 (BTK) | GI50 [1] | IC50 (JAK3) | GI50 [2] | IC50 (EGFR L858R/T790M) | SMILES | mBWL (maximum body weight loss) ([3]; 50 mg/kg) | IR (tumor growth inhibition rate) (NCI-H1975 cancer cells; 50 mg/kg) | mBWL (maximum body weight loss) ([3]; 70 mg/kg) | weight gain ([3]; in therapeutically equivalent dose (70 mg/kg), NCI-H1975 xenografted nude mice) | IR (tumor growth inhibition rate) (NCI-H1975 cancer cells; 70 mg/kg)
1 | > 1 µM | 0.1 to 1 µM | ≤ 0.05 µM | < 0.05 µM | ≤ 0.05 µM | < 0.05 µM | < 0.05 µM | C=CC(=O)Nc1cccc(Oc2nc(Nc3ccc(N4CCC(N5CCCCC5)CC4)cc3)nc3ccsc23)c1 [Example 48] | – | – | – | – | –
2 | > 1 µM | 0.1 to 1 µM | – | < 0.05 µM | – | < 0.05 µM | < 0.05 µM | C=CC(=O)Nc1cccc(Nc2nc(Nc3ccc(N4CCN(C)CC4)cc3)nc3ccsc23)c1 [Example 206, N-(3-(2-(4-(4-methylpiperazin-1-yl)phenylamino)thieno[3,2-d]pyrimidin-4-ylamino)phenyl)acrylamide] | – | – | – | – | –
3 | – | – | – | – | – | – | – | CN(C)C/C=C/C(=O)Nc1cc2c(Nc3ccc(F)c(Cl)c3)ncnc2cc1O[C@H]1CCOC1 [BIBW2992, Afatinib, reference compound] | 9.1% | 77% | – | – | –
4 | > 1 µM | > 1 µM | – | 0.05 to 0.1 µM | – | 0.05 to 0.1 µM | < 0.05 µM | C=CC(=O)Nc1cccc(Oc2nc(Nc3ccc(N4CCN(C)CC4)cc3OC)nc3ccsc23)c1 [Example 2] | – | – | −7.6% | 7.6% | 75%
5 | > 1 µM | > 1 µM | – | < 0.05 µM | – | < 0.05 µM | < 0.05 µM | C=CC(=O)Nc1cccc(Oc2nc(Nc3ccc(N4CCOCC4)c(F)c3)nc3ccsc23)c1 [Example 122] | – | – | – | – | –
6 | – | > 1 µM | – | < 0.05 µM | – | < 0.05 µM | < 0.05 µM | C=CC(=O)Nc1cccc(Oc2nc(Nc3ccc(C4CCCN(C)C4)cc3OC)nc3ccsc23)c1 (stereo not shown) [Example 115] | – | – | – | – | –
7 | – | > 1 µM | – | < 0.05 µM | – | < 0.05 µM | < 0.05 µM | C=CC(=O)Nc1cccc(Nc2nc(Nc3ccc(N4CCN(C)CC4)c(F)c3)nc3ccsc23)c1 [Example 215] | – | – | – | – | –
8 | > 1 µM | – | ≤ 0.05 µM | < 0.05 µM | 0.05 to 0.1 µM | < 0.05 µM | – | C=CC(=O)Nc1cccc(Oc2nc(Nc3ccc(CN4CCN(C)CC4)cc3)nc3ccsc23)c1 [Example 182] | – | – | – | – | –
9 | > 1 µM | – | 0.05 to 0.1 µM | < 0.05 µM | 0.05 to 0.1 µM | 0.05 to 0.1 µM | – | C=CC(=O)Nc1cccc(Oc2nc(Nc3ccc(CN4CCOCC4)cc3)nc3ccsc23)c1 [Example 187] | – | – | – | – | –
10 | > 1 µM | – | ≤ 0.05 µM | < 0.05 µM | ≤ 0.05 µM | < 0.05 µM | – | C=CC(=O)Nc1cccc(Oc2nc(Nc3ccc(NCCN(C)C)c(F)c3)nc3ccsc23)c1 [Example 199] | – | – | – | – | –
11 | > 1 µM | – | ≤ 0.05 µM | < 0.05 µM | 0.05 to 0.1 µM | < 0.05 µM | – | C=CC(=O)Nc1cccc(Oc2nc(Nc3ccc(N4CCC(CN5CCCCC5)CC4)cc3)nc3ccsc23)c1 [Example 42] | – | – | – | – | –
